Laboratory results as given in patent publication US9688681B2, “Heterocyclic compounds as pest control agents” (BAYER CROPSCIENCE AKTIENGESELLSCHAFT, priority 2013, dated 2017).

test system: not listed separately; assay: log P by HPLC on reversed-phase C18 columns (OECD Guideline 117); format: physicochemical; settings: HPLC RP C18, acidic range pH 2.7, 0.1% aqueous formic acid/acetonitrile

Structure (SMILES)	logP[a]
Cc1nc2nn(-c3cccnc3)cc2c(=O)n1C(C)C [compound 28]	1.28
O=c1c2cn(-c3cccnc3)nc2ncn1CC1CC1 [compound 33]	1.23
CC(c1ccccn1)n1cnc2nn(-c3cccnc3)cc2c1=O (stereo not shown) [compound 21]	1.13
O=c1c2cn(-c3cccnc3)nc2ncn1CC(F)F [compound 25]	0.91
Cc1ccc(-n2cnc3nn(-c4cccnc4)cc3c2=O)cc1 [compound 39]	1.73
O=c1c2cn(-c3ccccc3)nc2ncn1Cc1ncccn1 [compound 11]	0.63
O=c1c2cn(-c3cccnc3)nc2ncn1-c1ccccc1 [compound 10]	1.40
CCOC(=O)Cn1cnc2nn(-c3cccnc3)cc2c1=O [compound 19]	0.98
CSCCn1cnc2nn(-c3cccnc3)cc2c1=O [compound 27]	1.13
O=c1c2cn(-c3cccnc3)nc2ncn1C1CC1 [compound 23]	0.79
CC(C)(C)Cn1cnc2nn(-c3cccnc3)cc2c1=O [compound 34]	1.70
O=c1c2cn(-c3cccnc3)nc2ncn1CC1CCCO1 (stereo not shown) [compound 17]	1.07
CSCC(C)n1cnc2nn(-c3cccnc3)cc2c1=O (stereo not shown) [compound 31]	1.36
CCn1cnc2nn(-c3cccnc3)cc2c1=O [compound 9]	0.80
N#CC1(n2cnc3nn(-c4cccnc4)cc3c2=O)CC1 [compound 30]	0.82
Cn1cnc2nn(-c3cccnc3)cc2c1=O [compound 18]	0.45
CN(C)C(=O)Cn1cnc2nn(-c3cccnc3)cc2c1=O [compound 22]	0.47
CC(F)(F)Cn1cnc2nn(-c3cccnc3)cc2c1=O [compound 24]	1.19
O=c1c2cn(-c3cccnc3)nc2ncn1CC(F)(F)F [compound 12]	1.27
CCOC(=O)c1cnn(-c2cccnc2)c1N [IIIa-1, Ethyl 5-amino-1-(pyridin-3-yl)-1H-pyrazole-4-carboxylate]	1.10
O=c1c2cnn(-c3cccnc3)c2ncn1-c1ccc(Cl)cc1 [compound 4]	2.04
O=c1c2cnn(-c3cccnc3)c2ncn1-c1ccccc1 [compound 2]	1.57

same assay, conditions: HPLC RP C18, neutral range pH 7.8, 0.001 molar aqueous ammonium hydrogencarbonate/acetonitrile

Structure (SMILES)	logP[b]
Cc1nc2nn(-c3cccnc3)cc2c(=O)n1C(C)C [compound 28]	1.35
O=c1c2cn(-c3cccnc3)nc2ncn1CC1CC1 [compound 33]	1.27
CC(c1ccccn1)n1cnc2nn(-c3cccnc3)cc2c1=O (stereo not shown) [compound 21]	1.32
O=c1c2cn(-c3cccnc3)nc2ncn1CC(F)F [compound 25]	0.96
Cc1ccc(-n2cnc3nn(-c4cccnc4)cc3c2=O)cc1 [compound 39]	1.73
CCOC(=O)Cn1cnc2nn(-c3cccnc3)cc2c1=O [compound 19]	1.09
CSCCn1cnc2nn(-c3cccnc3)cc2c1=O [compound 27]	1.19
O=c1c2cn(-c3cccnc3)nc2ncn1C1CC1 [compound 23]	0.83
CC(C)(C)Cn1cnc2nn(-c3cccnc3)cc2c1=O [compound 34]	1.71
O=c1c2cn(-c3cccnc3)nc2ncn1CC1CCCO1 (stereo not shown) [compound 17]	1.12
CSCC(C)n1cnc2nn(-c3cccnc3)cc2c1=O (stereo not shown) [compound 31]	1.40
N#CC1(n2cnc3nn(-c4cccnc4)cc3c2=O)CC1 [compound 30]	0.85
Cn1cnc2nn(-c3cccnc3)cc2c1=O [compound 18]	0.52
CN(C)C(=O)Cn1cnc2nn(-c3cccnc3)cc2c1=O [compound 22]	0.51
CC(F)(F)Cn1cnc2nn(-c3cccnc3)cc2c1=O [compound 24]	1.21

same assay, conditions: pH 2.7

Structure (SMILES)	logP[a]
O=c1c2cnn(-c3cccnc3)c2ncn1Cc1ncccn1 [compound 5]	0.80
O=c1c2cnn(-c3cccnc3)c2ncn1CC(F)(F)F [compound 3]	1.48

Second part, the compound after the results:

logP[a]	Structure (SMILES)
0.58	Cn1cnc2c(cnn2-c2cccnc2)c1=O [compound 7]
0.93	CC(C)n1cnc2nn(-c3cncnc3)cc2c1=O [compound 37]
1.31	CC(C)n1cnc2c(cnn2-c2cccnc2)c1=O [compound 1]

same assay, conditions: pH 7.8

logP[b]	Structure (SMILES)
0.82	Cn1cnc2c(cnn2-c2cccnc2)c1=O [compound 7]
0.92	CC(C)n1cnc2nn(-c3cncnc3)cc2c1=O [compound 37]

Structure (SMILES)	logP[b]
O=c1c2cnn(-c3cccnc3)c2ncn1Cc1ncccn1 [compound 5]	0.91

same assay, conditions: reversed-phase C18 HPLC column, pH 2.7, HPLC RP C18, acidic range pH 2.7, 0.1% aqueous formic acid/acetonitrile; read-out: logP[a]

Structure (SMILES)	chromatographic logP
CCn1cnc2nn(-c3cccnc3)cc2c1=O [compound 16, 5-Ethyl-2-(pyridin-3-yl)-2,5-dihydro-4H-pyrazolo[3,4-d]pyrimidin-4-one]	0.7
C(=NNc1cccnc1)c1ccccc1 [VII-1, Benzaldehyde pyridin-3-yl hydrazone]	0.86
CCOC(=O)c1cnn(-c2cncnc2)c1N [IIIa-2, Ethyl 5-amino-1-(pyrimidin-5-yl)-1H-pyrazole-4-carboxylate]	1.16
CCOC(=O)c1cn(-c2ccnnc2)nc1N [IIIb-3, ethyl 3-amino-1-pyridazin-4-yl-pyrazole-4-carboxylate]	0.9
CC(C)NC(=O)c1cn(-c2ccnnc2)nc1N [IIb-3-1, 3-Amino-N-isopropyl-1-pyridazin-4-yl-pyrazole-4-carboxamide]	0.74
CNC(=O)c1cnn(-c2cncnc2)c1N [IIb-2-1, 5-Amino-N-methyl-1-(pyrimidin-5-yl)-1H-pyrazole-4-carboxamide]	0.18
CCOC(=O)c1cn(-c2cncnc2)nc1N [IIIb-2, ethyl 3-amino-1-(pyrimidin-5-yl)-1H-pyrazole-4-carboxylate]	1.12
CCOC(=O)C(C#N)=CN(N=Cc1ccccc1)c1cccnc1 [VIII-1, Ethyl 3-[2-benzylidene-1-(pyridin-3-yl)hydrazino]-2-cyanoacrylate]	2.54

Continued, values first:

chromatographic logP	Structure (SMILES)
1.06	CC(C)n1cnc2nn(-c3cccnc3)cc2c1=O [compound 15, 5-Isopropyl-2-(pyridin-3-yl)-2,5-dihydro-4H-pyrazolo[3,4-d]pyrimidin-4-one]
0.5	CCNC(=O)c1cnn(-c2cccnc2)c1N [IIa-1-1, 5-Amino-N-ethyl-1-(pyridin-3-yl)-1H-pyrazole-4-carboxamide]
2.07	CCn1c(C(F)(F)F)nc2nn(-c3cccnc3)cc2c1=O [compound 32, 5-Ethyl-2-(pyridin-3-yl)-6-(trifluoromethyl)-2,5-dihydro-4H-pyrazolo[3,4-d]pyrimidin-4-one]
1.18	CCOC(=O)c1cnn(-c2cccnc2)c1N [(IIIa-1). HCOOH, ethyl 5-amino-1-(pyridin-3-yl)-1H-pyrazole-4-carboxylate]
1.12	CCOC(=O)c1cnn(-c2ccnnc2)c1N [IIIa-3, Ethyl 5-amino-1-pyridazin-4-yl-pyrazole-4-carboxylate]
1.72	CC(C)n1nnc2nn(-c3cccnc3)cc2c1=O [compound 36, 3-Isopropyl-6-(3-pyridyl)pyrazolo[3,4-d]triazin-4-one]
0.55	Cn1cnc2c(cnn2-c2cncnc2)c1=O [compound 8, 5-Methyl-1-(pyrimidin-5-yl)-1,5-dihydro-4H-pyrazolo[3,4-d]pyrimidin-4-one]
0.93	CCn1c(C)nc2nn(-c3cccnc3)cc2c1=O [compound 29, 5-Ethyl-6-methyl-2-(pyridin-3-yl)-2,5-dihydro-4H-pyrazolo[3,4-d]pyrimidin-4-one]
0.85	CC(C)n1cnc2nn(-c3ccnnc3)cc2c1=O [compound 38, 5-Isopropyl-2-pyridazin-4-yl-pyrazolo[3,4-d]pyrimidin-4-one]
0.45	CCNC(=O)c1cn(-c2cccnc2)nc1N [IIb-1-1, 3-Amino-N-ethyl-1-(pyridin-3-yl)-1H-pyrazole-4-carboxamide]
0.98	CCn1cnc2c(cnn2-c2cccnc2)c1=O [compound 6, 5-Ethyl-1-(pyridin-3-yl)-1,5-dihydro-4H-pyrazolo[3,4-d]pyrimidin-4-one]
0.82	CC(C)NC(=O)c1cn(-c2cccnc2)nc1N [IIb-1-2, 3-Amino-N-isopropyl-1-(pyridin-3-yl)-1H-pyrazole-4-carboxamide]
1.12	CCOC(=O)c1cn(-c2cccnc2)nc1N [IIIb-1, Ethyl 3-amino-1-(pyridin-3-yl)-1H-pyrazole-4-carboxylate]

same assay, conditions: reversed-phase C18 HPLC column, pH 7.8, HPLC RP C18, neutral range pH 7.8, 0.001 molar aqueous ammonium hydrogencarbonate/acetonitrile; read-out: logP[b]

Structure (SMILES)	chromatographic logP
CCn1cnc2nn(-c3cccnc3)cc2c1=O [compound 16, 5-Ethyl-2-(pyridin-3-yl)-2,5-dihydro-4H-pyrazolo[3,4-d]pyrimidin-4-one]	0.84
C(=NNc1cccnc1)c1ccccc1 [VII-1, Benzaldehyde pyridin-3-yl hydrazone]	2.22
CCOC(=O)c1cnn(-c2cncnc2)c1N [IIIa-2, Ethyl 5-amino-1-(pyrimidin-5-yl)-1H-pyrazole-4-carboxylate]	1.12
CCOC(=O)c1cn(-c2ccnnc2)nc1N [IIIb-3, ethyl 3-amino-1-pyridazin-4-yl-pyrazole-4-carboxylate]	0.94
CC(C)NC(=O)c1cn(-c2ccnnc2)nc1N [IIb-3-1, 3-Amino-N-isopropyl-1-pyridazin-4-yl-pyrazole-4-carboxamide]	0.74
CNC(=O)c1cnn(-c2cncnc2)c1N [IIb-2-1, 5-Amino-N-methyl-1-(pyrimidin-5-yl)-1H-pyrazole-4-carboxamide]	-0.01
CCOC(=O)c1cn(-c2cncnc2)nc1N [IIIb-2, ethyl 3-amino-1-(pyrimidin-5-yl)-1H-pyrazole-4-carboxylate]	1.08
CCOC(=O)C(C#N)=CN(N=Cc1ccccc1)c1cccnc1 [VIII-1, Ethyl 3-[2-benzylidene-1-(pyridin-3-yl)hydrazino]-2-cyanoacrylate]	2.48

The remaining lines, values ahead:

chromatographic logP	Structure (SMILES)
1.12	CC(C)n1cnc2nn(-c3cccnc3)cc2c1=O [compound 15, 5-Isopropyl-2-(pyridin-3-yl)-2,5-dihydro-4H-pyrazolo[3,4-d]pyrimidin-4-one]
0.56	CCNC(=O)c1cnn(-c2cccnc2)c1N [IIa-1-1, 5-Amino-N-ethyl-1-(pyridin-3-yl)-1H-pyrazole-4-carboxamide]
2.06	CCn1c(C(F)(F)F)nc2nn(-c3cccnc3)cc2c1=O [compound 32, 5-Ethyl-2-(pyridin-3-yl)-6-(trifluoromethyl)-2,5-dihydro-4H-pyrazolo[3,4-d]pyrimidin-4-one]
1.27	CCOC(=O)c1cnn(-c2cccnc2)c1N [(IIIa-1). HCOOH, ethyl 5-amino-1-(pyridin-3-yl)-1H-pyrazole-4-carboxylate]
1.12	CCOC(=O)c1cnn(-c2ccnnc2)c1N [IIIa-3, Ethyl 5-amino-1-pyridazin-4-yl-pyrazole-4-carboxylate]
1.7	CC(C)n1nnc2nn(-c3cccnc3)cc2c1=O [compound 36, 3-Isopropyl-6-(3-pyridyl)pyrazolo[3,4-d]triazin-4-one]
0.55	Cn1cnc2c(cnn2-c2cncnc2)c1=O [compound 8, 5-Methyl-1-(pyrimidin-5-yl)-1,5-dihydro-4H-pyrazolo[3,4-d]pyrimidin-4-one]
1.03	CCn1c(C)nc2nn(-c3cccnc3)cc2c1=O [compound 29, 5-Ethyl-6-methyl-2-(pyridin-3-yl)-2,5-dihydro-4H-pyrazolo[3,4-d]pyrimidin-4-one]
0.85	CC(C)n1cnc2nn(-c3ccnnc3)cc2c1=O [compound 38, 5-Isopropyl-2-pyridazin-4-yl-pyrazolo[3,4-d]pyrimidin-4-one]
0.77	CCNC(=O)c1cn(-c2cccnc2)nc1N [IIb-1-1, 3-Amino-N-ethyl-1-(pyridin-3-yl)-1H-pyrazole-4-carboxamide]
1.15	CCn1cnc2c(cnn2-c2cccnc2)c1=O [compound 6, 5-Ethyl-1-(pyridin-3-yl)-1,5-dihydro-4H-pyrazolo[3,4-d]pyrimidin-4-one]
1.05	CC(C)NC(=O)c1cn(-c2cccnc2)nc1N [IIb-1-2, 3-Amino-N-isopropyl-1-(pyridin-3-yl)-1H-pyrazole-4-carboxamide]
1.32	CCOC(=O)c1cn(-c2cccnc2)nc1N [IIIb-1, Ethyl 3-amino-1-(pyridin-3-yl)-1H-pyrazole-4-carboxylate]

test system: green peach aphid (Myzus persicae); assay: Myzus persicae spray test on Chinese cabbage leaf discs; format: in vivo; settings: application rate 500 g/ha, after 6 days
Description: Discs of Chinese cabbage leaves (Brassica pekinensis) infested by all stages of the green peach aphid (Myzus persicae) are sprayed with an active ingredient formulation of the desired concentration.

Structure (SMILES)	efficacy (aphids killed) [%]
CCn1cnc2nn(-c3cccnc3)cc2c1=O [compound 16, 5-Ethyl-2-(pyridin-3-yl)-2,5-dihydro-4H-pyrazolo[3,4-d]pyrimidin-4-one]	100
Cc1nc2nn(-c3cccnc3)cc2c(=O)n1C(C)C [compound 28]	90
O=c1c2cn(-c3cccnc3)nc2ncn1CC1CC1 [compound 33]	100
CC(c1ccccn1)n1cnc2nn(-c3cccnc3)cc2c1=O (stereo not shown) [compound 21]	90
CC(C)n1cnc2nn(-c3cccnc3)cc2c1=O [compound 15, 5-Isopropyl-2-(pyridin-3-yl)-2,5-dihydro-4H-pyrazolo[3,4-d]pyrimidin-4-one]	100
O=c1c2cn(-c3cccnc3)nc2ncn1CC(F)F [compound 25]	100
Cc1ccc(-n2cnc3nn(-c4cccnc4)cc3c2=O)cc1 [compound 39]	100
O=c1c2cn(-c3ccccc3)nc2ncn1Cc1ncccn1 [compound 11]	100
O=c1c2cn(-c3cccnc3)nc2ncn1-c1ccccc1 [compound 10]	90
CCOC(=O)Cn1cnc2nn(-c3cccnc3)cc2c1=O [compound 19]	100
CC(C)n1cnc2nn(-c3cncnc3)cc2c1=O [compound 37]	100
O=c1c2cn(-c3cccnc3)nc2ncn1C1CC1 [compound 23]	100
CC(C)(C)Cn1cnc2nn(-c3cccnc3)cc2c1=O [compound 34]	100
O=c1c2cn(-c3cccnc3)nc2ncn1CC1CCCO1 (stereo not shown) [compound 17]	100
CC(C)n1nnc2nn(-c3cccnc3)cc2c1=O [compound 36, 3-Isopropyl-6-(3-pyridyl)pyrazolo[3,4-d]triazin-4-one]	90
CCn1c(C)nc2nn(-c3cccnc3)cc2c1=O [compound 29, 5-Ethyl-6-methyl-2-(pyridin-3-yl)-2,5-dihydro-4H-pyrazolo[3,4-d]pyrimidin-4-one]	90
N#CC1(n2cnc3nn(-c4cccnc4)cc3c2=O)CC1 [compound 30]	100
O=c1c2cnn(-c3cccnc3)c2ncn1Cc1ncccn1 [compound 5]	90
CC(C)n1cnc2nn(-c3ccnnc3)cc2c1=O [compound 38, 5-Isopropyl-2-pyridazin-4-yl-pyrazolo[3,4-d]pyrimidin-4-one]	90
Cn1cnc2nn(-c3cccnc3)cc2c1=O [compound 18]	100
CN(C)C(=O)Cn1cnc2nn(-c3cccnc3)cc2c1=O [compound 22]	90
CC(F)(F)Cn1cnc2nn(-c3cccnc3)cc2c1=O [compound 24]	100
O=c1c2cn(-c3cccnc3)nc2ncn1CC(F)(F)F [compound 12]	100
O=c1c2cnn(-c3cccnc3)c2ncn1CC(F)(F)F [compound 3]	100
O=c1c2cnn(-c3cccnc3)c2ncn1-c1ccc(Cl)cc1 [compound 4]	90
O=c1c2cnn(-c3cccnc3)c2ncn1-c1ccccc1 [compound 2]	90

test system: green peach aphid (Myzus persicae); assay: not given; settings: application rate 20 ppm, after 6 days, bell pepper plants sprayed to runoff
Description: Myzus persicae—Spray Test
Solvent: 7 parts by weight of dimethylformamide
Emulsifier: alkylaryl polyglycol ether
To produce an appropriate active ingredient formulation, 1 part by weight of active ingredient is dissolved using the specified parts by weight of solvent and made up with water containing an emulsifier concentration of 1000 ppm until the desired concentration is attained. To produce further test concentrations, the preparation is diluted with emulsifier-containing water. If the addition of ammonium salts or/and penetrants is required, these are each added in a concentration of 1000 ppm to the formulation solution.
After 6 days, the kill in % is determined. 100% means that all the aphids have been killed; 0% means that no aphids have been killed.

Structure (SMILES)	efficacy (kill) [%]
CSCCn1cnc2nn(-c3cccnc3)cc2c1=O [compound 27]	90
CSCC(C)n1cnc2nn(-c3cccnc3)cc2c1=O (stereo not shown) [compound 31]	95
